# Entries after “also recorded” stand apart in the source; their conditions may differ.
# Tests used:
# [1] = test system: red blood cells (RBCs); settings: for effect of hydrophilic 1O2 scavenger on photohemolysis by TMR-TAT or TMR-riTAT: scavenger up to 50 mM, TMR-TAT or TMR-riTAT 3 µM
# Protocol: Whole blood was purchased from Gulf Coast Regional Blood Center (Houston, TX). Erythrocytes were centrifuged for 5 min at 1500 g and the erythrocyte pellet was resuspended with PBS. This was repeated three times to remove plasma and buffy coat. The erythrocytes (50% volume in PBS) were diluted in PBS to a final concentration of 0.25%. Indicated concentration of peptide was added to the medium and the samples were added to the wells of an 8-well chamber glass slide (Nunc). Cells were typically allowed to settle to the bottom of the dish for 5 minutes prior to imaging so as to obtain a layer of cells in the focal plane.
# Cells were placed on an inverted epifluorescence microscope (Model IX81, Olympus, Center Valley, PA) equipped with a heating stage maintained at 37°C. The microscope is configured with a spinning disk unit to perform both confocal and wide-field fluorescence microscopy. Images were collected using a Rolera-MGI Plus back-illuminated EMCCD camera (Qimaging, Surrey, BC, Canada). Images were acquired using bright field imaging and two standard fluorescence filter sets: Texas Red (Ex = 560±20 nm/Em = 630±35 nm), and CFP (Ex = 436±10 nm/Em = 480±20 nm). The excitation light was from a 100 W halogen lamp (Olympus USH 1030C) passed through the filter cubes and 40 or 100× objective lenses. Neutral density filters (ND 1, 2, 3, or 4 on the instrument, corresponding to 100, 25, 12.5, or 5% transmittance) and different exposure times were used to modulate the amount of light samples were exposed to. The bright field and fluorescence intensities of cells and ghosts were measured using the SlideBook 4.2 software (Olympus, Center Valley, PA). To determine the percentage of cells stained by SYTOX® Blue, cells were imaged with a 20× objective by phase contrast. Ten to twenty images were acquired for each experiment. The total number of cells in a given image was determined from the phase contrast image while the number of dead cells was determined by identifying cells containing a blue fluorescent nucleus stained by SYTOX® Blue. Cell viability was determined by establishing a ratio of dead cells/total number of cells for each sample (at least 1000 cells were counted in each experiments and each experiments were repeated 3 times).
# TMR and TMR containing peptides were used at 2 µM. All experiments were performed by irradiating the samples at 560 nm for 400 msec (∼8 J/cm^2). The data in the histogram represents the average of 4 experiments and the error bars correspond to the standard deviation.
# [2] = test system: HeLa cells; experiment: Photocytotoxicity of endocytosed peptide after light irradiation (SYTOX Blue staining, membrane blebbing); format: cell-based; settings: for photocytotoxicity / cell death after irradiation at 560 nm: incubation 1 h 37°C (3 µM; TMR-K9 10 µM), irradiated at 560±20 nm
# Protocol: (§1) HeLa (human cervical adenocarcinoma), COS-7 (SV40 transformed African green monkey kidney fibroblast-like cell line) were obtained from ATCC. COLO 316 (human ovarian carcinoma) were obtained from Robert Burghardt (Department of Veterinary Integrative Biosciences, Texas A&M University). Cells were cultured in DMEM supplemented with 10% fetal bovine serum (FBS) and maintained at 37°C in a humidified environment with 5% CO2. Cells were plated in 8-well dishes so that the cells were 70% confluent after 24 h, washed 3 times with L-15 media, incubated with 3 to 10 µM peptides at 37°C for 1 h, washed 3 times with L-15, and imaged. Alternatively, cells were incubated in L-15 at 4°C to inhibit the endocytic uptake of peptides. In this case, cells were imaged with the peptide still present in solution and the low temperature was maintained for the entire duration of imaging. For photosensitization, cells were exposed to light (λex = 560±20 nm) for the indicated time points. Plasma membrane disruption was detected by addition of the cell-impermeable DNA stain SYTOX Blue (5 µM) during or after photosensitization.
# (§2) Ten to twenty images were acquired for each experiment.
# Irradiances at the specimen were 100 mW/cm^2 when no neutral density filter and no objective were present in the light path (and, for instance 5 mW/cm^2 when ND4 was inserted). Irradiances were measured using a monochromic photometer (model 840-c, Newport, Irvine, CA). Irradiation area has a diameter of 1.3 cm without objective but the light beam is focused into an area of 3×10^−3 cm^2 by the 100× objective. Irradiances can therefore be approximated to be at […] with ND4 or ND1, respectively. Irradiances provided in the figure legends are based on these calculations. To confirm that the irradiances measured on the microscope were accurate, experiments were also reproduced, when possible, using light illumination with a collimated light source from Oriel (Stratford, CT) equipped with a 500 W Hg lamp. Selective irradiation at 560 nm was performed using an analytical line filter (Oriel, 9.4 nm bandwidth). In this case, irradiances of the light beam (diameter of 2.5 cm) could be measured more precisely using the monochromic photometer.
# [3] = test system: HeLa cells; experiment: Photosensitization of extracellular peptide at 4°C (endocytosis blocked); format: cell-based, human; settings: 3 µM, 4°C to block endocytosis, irradiated at 560 nm with compound still in the media
# Protocol: as §1
# It is therefore possible that the endosomal release observed in the experiments of Figure 1 might be necessary to cause cell death. To investigate whether this is the case, we examined if light-induced cell-death could be observed when the peptides were only localized at the plasma membrane of cells. For these experiments, HeLa cells were first incubated with the peptides (3 µM) at 4°C to block endocytosis. Cells were then irradiated with the peptides still present in the media (the peptide is not retained at the plasma membrane when cells are washed). […] Cells were then washed and observed by fluorescence imaging. […] On the other hand, the membrane damage and cell death obtained after TMR-TAT photosensitization were also observed when hematoporphyrin (HP) or hematoporphyrin derivative (HPD) were used (Fig. 4B). […]
# [4] = cited from earlier work
# Excerpt: Upon light irradiation TMR-TAT rapidly and efficiently disrupts the membrane of endosomes. However, in our hands, this activity is also accompanied by the simultaneous destruction of cells. The peptide therefore played the role of a photosensitizer, a molecule able to kill cells upon light irradiation. While multiple cellular events might take place during the photosensitization of the compound, the damage to cellular membranes other than that of endosomes appears to lead to this photocytotoxic effect. The peptide was for instance able to lyse the plasma membrane of HeLa cells as well as the m ...
# [5] = test system: HeLa cells; experiment: Photo-induced endosomal release (fluorescence imaging); format: cell-based, human; settings: washed
# Protocol: as §1, §2
# The effect of light irradiation on cells that have endocytosed TMR-TAT was first investigated. HeLa cells were incubated in the presence of TMR-TAT (3 µM) for 1 hour at 37°C. After washing the cells, the sample was placed on a microscope and the cellular distribution of the peptide was assessed by fluorescence imaging. […] Within seconds, the content of many endosomes was released into the cell and the peptides were distributed throughout the cell. The peptide also accumulated at the nucleoli, a known effect of TAT [7]. […] The viability of non-irradiated cells was, in contrast, not affected by TMR-TAT (Fig. 2B); we found the cytotoxicity of the peptide to be negligible in the absence of light at concentrations up to 25 µM (supporting information Fig. S1).
# [6] = test system: HeLa cells; experiment: Endocytic uptake (fluorescence of endocytic organelles); format: cell-based, human
# Protocol: as §1
# Supplementary file pone.0017732.s003.tif: Figure S3 Comparison of the fluorescence intensity of endosomes containing TMR-TAT (incubation at 3 µM) or TMR-K9 (incubation at 10 µM) in the images presented in Figure 1. Imaging was performed in both cases under identical conditions. The fluorescence intensities of all endocytic organelles was measured the Slidebook software. […] (TIF) Click here for additional data file.
compound,measurement,setting,value
"5(6)-carboxytetramethylrhodamine [TMR, reference compound]",photohemolysis (lytic effect on RBCs upon light exposure),"[1]; RBCs 0.25% in PBS, irradiation at 560 nm",no lytic effect
same,photocytotoxicity / cell death after irradiation at 560 nm,[2]; washed,did not cause cell death; also recorded: essentially non-cytotoxic
same,light-induced cell death with peptide only extracellular,[3],did not die
"CC1=C(CCC(=O)O)c2cc3[nH]c(cc4nc(cc5[nH]c(cc1n2)c(C)c5C(C)O)C(C)=C4C(C)O)c(C)c3CCC(=O)O (stereo not shown) [HP, hematoporphyrin]",singlet oxygen quantum yield,[4],approximately 0.5
same,membrane damage and cell death after photosensitization,"[2]; incubated 1 hour, washed with L-15, irradiated at 560 nm",also observed
"N[C@@H](Cc1c[nH]cn1)C(=O)O [L-histidine, reference compound]",effect of hydrophilic 1O2 scavenger on photohemolysis by TMR-TAT or TMR-riTAT,[1],no detectable decrease
"CC(/C=C/C=C(\C)C(=O)O)=C\C=C\C=C(C)\C=C\C=C(/C)C(=O)O [crocetin, reference compound]",effect of quencher on photohemolysis,[1]; crocetin 50 µM,dramatic reduction
same,endosomal release of TMR-TAT in the presence of quencher,"[5]; TMR-TAT 3 µM with crocetin 50 µM for 1 hour, 560 nm",lesser extent; also recorded: reduced by crocetin but not abolished
same,cell death by irradiated TMR-TAT in the presence of quencher,"[2]; TMR-TAT 3 µM with crocetin 50 µM for 1 hour, washed, 560 nm",cell-death was not observed; also recorded: not accompanied by membrane blebbing or SYTOX® Blue staining
"[N-]=[N+]=[N-].[Na+] [sodium azide, reference compound]",effect of hydrophilic 1O2 scavenger on photohemolysis by TMR-TAT or TMR-riTAT,[1],no detectable decrease
CC(=O)Oc1c(C)c(C)c2c(c1C)CCC(C)(CCC[C@H](C)CCC[C@H](C)CCCC(C)C)O2 (stereo partly drawn) [α-tocopherol acetate],onset of photosensitization of TMR-TAT in the presence of quencher,[2]; α-tocopherol acetate prior to TMR-TAT incubation and during irradiation,delayed
same,photo-induced endosomal release and cell death by TMR-TAT in the presence of quencher,"[2]; α-tocopherol acetate prior to TMR-TAT incubation and during irradiation, data not shown",still observed
"GRKKRRQRRR [TAT, prototypical cell-penetrating peptide TAT, unlabeled]",photocytotoxicity / cell death after irradiation at 560 nm,[2]; washed,did not die
"TMR-KKKKKKKKK-NH2 [TMR-K9, 9 positively charged lysine residues labeled with TMR; serves as a control]",fold less efficient than TMR-TAT and TMR-riTAT in causing photohemolysis,"[1]; RBCs 0.25% in PBS, 2 µM, 560 nm for 400 msec (~8 J/cm^2), average of 4 experiments",5 fold
same,endocytic uptake by cells,"[6]; 1 h at 37°C, washed, fluorescence imaging (TMR-TAT 3 µM; TMR-K9 higher concentration)",endocytosed by cells
same,amount present in endocytic organelles (fluorescence intensity) compared with TMR-TAT,"[6]; TMR-K9 incubation at 10 µM vs TMR-TAT at 3 µM, identical imaging",equal or greater that that of TMR-TAT
same,photo-induced endosomal release (photoendosomolytic activity) at 560 nm,"[5]; incubation 1 h 37°C (3 µM; TMR-K9 10 µM), irradiated at 560±20 nm",not affected
same,photocytotoxicity / cell death after irradiation at 560 nm,[2]; washed,remain viable; also recorded: no photocytoxicity; also recorded: essentially non-cytotoxic
same,light-induced cell death with peptide only extracellular,[3],did not die

# — article PMC3056768, “Conjugation to the Cell-Penetrating Peptide TAT Potentiates the Photodynamic Effect of Carboxytetramethylrhodamine” (PLoS ONE, 2011)
